In patent publication US6037348A (priority 1997, dated 2000):
Converted amounts (≈) assume the structure as drawn. Read-outs that look alike come from different tables or passages of the source.

Key:
B/Lee = experiment: Antiviral plaque assay, B/Lee; assay type: cell-based; details: Influenza B virus, MDCK cells
Protocol: (§1) The in vitro anti-influenza activities of COMPOUND A, COMPOUND B, COMPOUND C and amantadine were evaluated using a standard plaque assay such as described in Hayden et al., Antimicrob. Agents Chemother., vol. 17, pages 865-870, (1980), herein incorporated by reference. In this assay, influenza virus-infected Madin Darby canine kidney (MDCK) cells were untreated or treated with serial dilutions of each compound. The concentration of compound required to inhibit viral plaque formation by 50% (IC50) was determined from the linear regression line of the plot of compound concentration versus percent inhibition of plaque formation. In addition, the IC50 can be determined by the method of Reed and Muench, Am. J. Hyg, vol. 27, 493-497 (1938) which is herein incorporated by reference.

infectious virions = test system: infectious virions; parameters: species or system influenza virus
A/AA H2N2 = experiment: microbe, parasite or virus in culture; details: H2N2, MDCK
A/AICHI H3N2 = experiment: Antiviral plaque assay, A/AICHI H3N2; details: MDCK cells
Protocol: as §1

A/FM/1/47 H1N1 = experiment: Antiviral plaque assay, A/FM/1/47 H1N1; details: MDCK cells
Protocol: as §1

B/Maryland = experiment: Antiviral plaque assay, B/Maryland; assay type: cell-based; details: Influenza B virus, MDCK cells
Protocol: as §1

in vitro = details: bovine, mdbk cells
BVDV = experiment: microbe, parasite or virus in culture; assay type: cell-based, bovine diarrheal virus (BVDV); details: Bovine viral diarrhea virus isolates and strains, MDBK, in Bos taurus
[1] = test system: influenza A/Kawasaki (A/KAW H1N1); experiment: Antiviral plaque assay, A/KAW H1N1; details: MDCK cells
Protocol: as §1

A/NWS H1N1 = experiment: Antiviral plaque assay, A/NWS H1N1; details: MDCK cells
Protocol: as §1

B/GL = experiment: Antiviral plaque assay, B/GL; assay type: cell-based; details: Influenza B virus, MDCK cells
Protocol: as §1

M2 ion channel = details: influenza A; cited from earlier work
[2] = read-out: IC50 (virus replication inhibited by 50%)

Structure (SMILES) | IC50 (B/Lee) [µg/mL] | IC50 (A/AA H2N2) [µg/mL] | IC50 (A/AICHI H3N2) [µg/mL] | IC50 (A/FM/1/47 H1N1) [µg/mL] | IC50 (B/Maryland) [µg/mL] | CC50 (in vitro) [µg/mL] | IC50 (BVDV; read-out: IC50) [µg/mL] | IC50 (BVDV; [2]) [µg/mL] | IC50 [1] [µg/mL] | IC50 (A/NWS H1N1) [µg/mL] | IC50 (B/GL) [µg/mL] | other results
COC(=O)[C@@]1(C)CCC[C@]2(C)c3cc(OC)ccc3C(=O)C[C@@H]12 [COMPOUND A] | ~1.23 (≈ 3.89 µM) | < 0.032 | ~10 (≈ 31.6 µM) | < 0.032 | ~2.7 (≈ 8.53 µM) | 51.8 (≈ 164 µM) | 13.5 (≈ 42.6 µM) | 3.56 (≈ 11.3 µM) | < 0.032 | > 10 | 5.65 (≈ 17.9 µM) | antiviral activity after pre-incubation with infectious virions (infectious virions): inactive; effect on fusion of human erythrocytes with A/WSN/33-infected MDCK cells (HA of A/WSN/33): no effect; effect on expression of HA on the infected cell surface (erythrocyte binding) (HA of A/Kawasaki/86): no effect; low pH-induced fusion of MDCK cells with human erythrocytes (HA of A/Kawasaki/86; pH 4.8): inhibition of the low pH-induced fusion; susceptibility of A/WSN/33 (influenza A/WSN/33): naturally resistant; IC50 (BVDV; read-out: concentration inhibiting replication by 50%): 3.5 µg/mL (≈ 11.1 µM); IC90 (BVDV; read-out: concentration inhibiting replication by 90%): 13.4 µg/mL (≈ 42.4 µM)
COC(=O)[C@@]1(C)CCC[C@@]2(C)C1=CC(=NO)c1ccc(OC)cc12 [J] |  |  |  |  |  | 30.8 (≈ 93.4 µM) | 8.9 (≈ 27 µM) | 5.25 (≈ 15.9 µM) |  |  |  | 
O=C(NCC(c1ccccc1)c1ccncc1)Nc1ccccc1Cl (centres unmarked) [COMPOUND B] | ~1.08 (≈ 3.07 µM) | 0.15 (≈ 0.426 µM) | ~7.26 (≈ 20.6 µM) | 0.18 (≈ 0.512 µM) | ~2.23 (≈ 6.34 µM) |  |  |  | 0.024 (≈ 0.0682 µM) | ~9.59 (≈ 27.3 µM) | 2.83 (≈ 8.04 µM) | 
COC(=O)C1(C)CCCC2(C)c3ccc(O)cc3C(=O)CC12 (centres unmarked) [Compound I] |  |  |  |  |  | 32 (≈ 106 µM) | 16 (≈ 53 µM) | 4.94 (≈ 16.3 µM) |  |  |  | 
COC(=O)C1(C)CCCC2(C)c3ccccc3C(=O)CC12 (centres unmarked) [K] |  |  |  |  |  | > 100 | 51 (≈ 178 µM) | 15 (≈ 52.3 µM) |  |  |  | 
NC12CC3CC(CC(C3)C1)C2 [Amantadine, amantadine, reference compound] | > 10 | 0.037 (≈ 0.245 µM) | 0.076 (≈ 0.502 µM) | 0.13 (≈ 0.859 µM) | > 10 |  |  |  | 0.036 (≈ 0.238 µM) | > 10 | > 10 | function of the M2 ion channel activity (M2 ion channel): inhibiting the function of the M2 ion channel activity
O=C(O)CCC1(c2ccccc2)CCCCC1 [COMPOUND C] | > 10 | 0.069 (≈ 0.297 µM) | ~10 (≈ 43 µM) | 0.15 (≈ 0.646 µM) | 6.34 (≈ 27.3 µM) |  |  |  | 0.07 (≈ 0.301 µM) | > 10 | > 10 | 
CC(N)C12CC3CC(CC(C3)C1)C2 (centres unmarked) [rimantadine] |  |  |  |  |  |  |  |  |  |  |  | function of the M2 ion channel activity (M2 ion channel): inhibiting the function of the M2 ion channel activity
